Data on 1 compound can be found in patent US20080300231A1, “Antibacterial amide macrocycles VI” (priority 2005, published 2008).

In brackets after ≈: the same amount, converted by molar mass.

Type in all cases: cell-based
Test [1] relates to Enterococcus faecium L4001. Put plainly: Minimum inhibitory concentration (MIC), E. faecium L4001. Particulars: E. faecium L4001; test medium with 10% FCS. On the procedure: (§1) Determination of the Minimum Inhibitory Concentration (MIC)
(§2) The minimum inhibitory concentration (MIC) is the minimum concentration of an antibiotic with which the growth of a test microbe is inhibited over 18-24 h. The inhibitor concentration can in these cases be determined by standard microbiological methods (see, for example, The National Committee for Clinical Laboratory Standards. Methods for dilution antimicrobial susceptibility tests for bacteria that grow aerobically; approved standard-fifth edition. NCCLS document M7-A5 [ISBN 1-56238-394-9]. NCCLS, 940 West Valley Road, Suite 1400, Wayne, Pa. 19087-1898 USA, 2000). The MIC of the compounds of the invention is determined in the liquid dilution test on the 96-well microtitre plate scale. The bacterial microbes are cultivated in a minimal medium (18.5 mM Na2HPO4, 5.7 mM KH2PO4, 9.3 mM NH4Cl, 2.8 mM MgSO4, 17.1 mM NaCl, 0.033 μg/ml of thiamine hydrochloride, 1.2 μg/ml of nicotinic acid, 0.003 μg/ml of biotin, 1% glucose, 25 μg/ml of each proteinogenic amino acid with the exception of phenylalanine; [H.-P. Kroll; unpublished]) with addition of 0.4% BH broth (test medium). In the case of Enterococcus faecium L4001, heat-inactivated fetal calf serum (FCS; GibcoBRL, Germany) is added to the test medium in a final concentration of 10%. Overnight cultures of the test microbes are diluted to an OD578 of 0.001 (to 0.01 in the case of enterococci) in fresh test medium, and incubated 1:1 with dilutions of the test substances (1:2 dilution steps) in test medium (200 μl final volume). The cultures are incubated at 37° C. for 18-24 hours; enterococci in the presence of 5% CO2
(§3) The lowest substance concentration in each case at which no visible bacterial growth occurs any more is defined as the MIC.
(§4) Alternative Method for Determining the Minimum Inhibitory Concentration (MIC)
(§5) The minimum inhibitory concentration (MIC) is the minimum concentration of an antibiotic with which the growth of a test microbe is inhibited over 18-24 h. The inhibitor concentration can in these cases be determined by standard microbiological methods with modified medium in an agar dilution test (see, for example, The National Committee for Clinical Laboratory Standards. Methods for dilution antimicrobial susceptibility tests for bacteria that grow aerobically; approved standard-fifth edition. NCCLS document M7-A5 [ISBN 1-56238-394-9]. NCCLS, 940 West Valley Road, Suite 1400, Wayne, Pa. 19087-1898 USA, 2000). The bacterial microbes are cultivated on 1.5% agar plates which contain 20% defibrinated horse blood. The test microbes, which are incubated overnight on Columbia blood agar plates (Becton-Dickinson), are diluted in PBS, adjusted to a microbe count of about 5×10^5 microbes/ml and placed dropwise (1-3 μl) on test plates. The test substances comprise different dilutions of the test substances (1:2 dilution steps). The cultures are incubated at 37° C. in the presence of 5% CO2 for 18-24 hours.
(§6) The lowest substance concentration in each case at which no visible bacterial growth occurred any more is defined as the MIC and is reported in μg/ml.

Test [2] deals with S. aureus RN4220. Put plainly: Resistance rate of S. aureus RN4220 on biphenomycin B agar plate. The note with it: agar plate containing 2 μg/ml biphenomycin B (10×MIC), 37° C. overnight. Here is the method:
(§7) The S. aureus strain RN4220Bi^R is isolated in vitro. […] Whereas about 1×10^7 cells grow on the antibiotic-free plate, about 100 colonies grow on the antibiotic-containing plate, corresponding to a resistance rate of 1×10^5. Some of the colonies grown on the antibiotic-containing plate are tested for the biphenomycin B MIC. One colony with a MIC of >50 μM is selected for further use, and the strain is referred to as RN4220Bi^R.

In test [3] the test system is S. aureus 133. Put plainly: Minimum inhibitory concentration (MIC), S. aureus 133. Particulars: S. aureus 133. Here is the method:
as §1, §2, §3, §4, §5, §6

For test [4], the system named is S. aureus RN4220Bi^R. The test can be described thus: MIC against biphenomycin-resistant S. aureus strain RN4220Bi^R. The note with it: colony selected as strain RN4220Bi^R. On the procedure: as §7
Test [5] has as its system S. aureus T17. The test can be described thus: Minimum inhibitory concentration (MIC), biphenomycin-resistant S. aureus T17. Here is the method: as §1, §2, §3, §4, §5, §6
The S. aureus strain T17 is isolated in vivo. CFW1 mice are infected intraperitoneally with 4×10^7 S. aureus 133 cells per mouse. 0.5 h after the infection, the animals are treated intravenously with 50 mg/kg biphenomycin B. The kidneys are removed from the surviving animals on day 3 after the infection. After homogenization of the organs, the homogenates are plated out as described for RN4220Bi^R on antibiotic-free and antibiotic-containing agar plates and incubated at 37° C. overnight. […] About 20 of these colonies are tested for the biphenomycin B MIC, and a colony with a MIC of >50 μM is selected for further cultivation, and the strain is referred to as T17.

As for `NC[C@H](O)C[C@@H]1NC(=O)[C@@H](N)Cc2cc(ccc2O)-c2ccc(O)c(c2)C[C@@H](C(=O)O)NC1=O` [Biphenomycin B, biphenomycin B, reference compound], the “MIC E. faecium L4001” value in test [1] stood at 0.5 µg/mL (≈ 1.06 µM). For the same compound, the resistance rate in test [2] is given as 1×10^5. Further, in test [3], the “MIC S. aureus 133” value is less than 0.03 µg/mL. The MIC in test [4] and in test [5] (colony from kidney selected as strain T17) was greater than 50 µM each time. Further, the “MIC S. aureus T17” value in test [5] (biphenomycin-resistant S. aureus T17) is greater than 32 µg/mL.

For orientation: MIC means the lowest concentration found to suppress growth. A higher MIC goes with weaker potency.
